≈ marks a conversion by molar mass, not a printed value. Like-named read-outs stand apart in the source and are kept apart here.
Tests used:
S. marcescens IAM 1184 = experiment: agar plate dilution method, MIC against S. marcescens IAM 1184; type: cell-based; conditions: Serratia marcescens, read-out: Minimum Inhibitory Concentration (MIC)
Description: (§1) The in vitro antibacterial activities of the compounds of the present invention against various microorganisms, were measured by the following agar plate dilution method. One platinum loopfull of each test microorganism incubated overnight in Mueller Hinton broth, was inoculated to Mueller Hinton agar (inoculum size: 10^6 CFU/ml) Such culture media containing various antibiotics in various concentrations were prepared After incubation at 37° C. for 16 hours, the minimum inhibitory concentrations (MIC: μg/ml) were measured. As comparative compounds, cefotaxime, oeftazidime and the compounds disclosed in Example 2 of Japanese Unexamined Patent Publication No. 215690/1985 e.g. sodium 7-[2-(2-aminothiazol-4-yl)-2-ethoxyiminoacetamido]-3-(1-carboxylatemethylpyridinio-4-yl)thiomethyl-3-cephem-4-carboxylate (hereinafter referred to simply as "Reference Example A") were employed.

E. coli CSH(RE45) = experiment: agar plate dilution method, MIC against E. coli CSH(RE45); type: cell-based; conditions: Escherichia coli, 16 h, read-out: Minimum Inhibitory Concentration (MIC)
Description: as §1

K. pneumoniae PCI-602 = experiment: agar plate dilution method, MIC against K. pneumoniae PCI-602; type: cell-based; conditions: Klebsiella pneumoniae, PCI602, 16 h, read-out: Minimum Inhibitory Concentration (MIC)
Description: as §1

A. calcoaceticus No. 4 = experiment: agar plate dilution method, MIC against A. calcoaceticus No. 4; type: cell-based; conditions: Acinetobacter calcoaceticus, read-out: Minimum Inhibitory Concentration (MIC)
Description: as §1

S. aureus JS1 = experiment: agar plate dilution method, MIC against S. aureus JS1; type: cell-based; conditions: Staphylococcus aureus, read-out: Minimum Inhibitory Concentration (MIC)
Description: as §1

S. aureus 209P NIHJ-JC1 = experiment: agar plate dilution method, MIC against S. aureus 209P NIHJ-JC1; type: cell-based; conditions: Staphylococcus aureus, 16 h, read-out: Minimum Inhibitory Concentration (MIC)
Description: as §1

Ps. aeruginosa IFO3445 = experiment: agar plate dilution method, MIC against Ps. aeruginosa IFO3445; type: cell-based; conditions: Pseudomonas aeruginosa, read-out: Minimum Inhibitory Concentration (MIC)
Description: as §1

S. marcescens No. 16-2 = experiment: agar plate dilution method, MIC against S. marcescens No. 16-2; type: cell-based; conditions: Serratia marcescens, NO.162, 16 h, read-out: Minimum Inhibitory Concentration (MIC)
Description: as §1

E. cloacae 963 = experiment: agar plate dilution method, MIC against E. cloacae 963; type: cell-based; conditions: read-out: Minimum Inhibitory Concentration (MIC)
Description: as §1

M. luteus ATCC9341 = experiment: agar plate dilution method, MIC against M. luteus ATCC9341; type: cell-based; conditions: Micrococcus luteus, read-out: Minimum Inhibitory Concentration (MIC)
Description: as §1

E. coli NIHJ JC2 = experiment: agar plate dilution method, MIC against E. coli NIHJ JC2; type: cell-based; conditions: Escherichia coli, read-out: Minimum Inhibitory Concentration (MIC)
Description: as §1

C. freundii GN346 = experiment: agar plate dilution method, MIC against C. freundii GN346; type: cell-based; conditions: Citrobacter freundii, read-out: Minimum Inhibitory Concentration (MIC)
Description: as §1

K. pneumoniae No. 42 = experiment: agar plate dilution method, MIC against K. pneumoniae No. 42; type: cell-based; conditions: Klebsiella pneumoniae, read-out: Minimum Inhibitory Concentration (MIC)
Description: as §1

P. vulgaris HX-19 = experiment: agar plate dilution method, MIC against P. vulgaris HX-19; type: cell-based; conditions: Proteus vulgaris, HX19, 16 h, read-out: Minimum Inhibitory Concentration (MIC)
Description: as §1

E. coli GN5482 = experiment: agar plate dilution method, MIC against E. coli GN5482; type: cell-based; conditions: Escherichia coli, read-out: Minimum Inhibitory Concentration (MIC)
Description: as §1

Ps. cepacia 23 = experiment: agar plate dilution method, MIC against Ps. cepacia 23; type: cell-based, Pseudomonas cepacia; conditions: read-out: Minimum Inhibitory Concentration (MIC)
Description: as §1

Ps. aeruginosa AKR17 = experiment: agar plate dilution method, MIC against Ps. aeruginosa AKR17; type: cell-based; conditions: Pseudomonas aeruginosa; Ps. aeruginosa AKR17; 10^6 CFU/ml, 37° C., 16 hours; read-out: Minimum Inhibitory Concentration (MIC)
Description: as §1

S. aureus BB5703 = experiment: agar plate dilution method, MIC against S. aureus BB5703; type: cell-based; conditions: Staphylococcus aureus, BB5703, 16 h, read-out: Minimum Inhibitory Concentration (MIC)
Description: as §1

E. cloacae Nek 39 = experiment: agar plate dilution method, MIC against E. cloacae Nek 39; type: cell-based; conditions: Enterobacter cloacae, read-out: Minimum Inhibitory Concentration (MIC)
Description: as §1

P. vulgaris No. 33 = experiment: agar plate dilution method, MIC against P. vulgaris No. 33; type: cell-based; conditions: Proteus vulgaris, read-out: Minimum Inhibitory Concentration (MIC)
Description: as §1

M. morganii GN5407 = experiment: agar plate dilution method, MIC against M. morganii GN5407; type: cell-based; conditions: Morganella morganii, read-out: Minimum Inhibitory Concentration (MIC)
Description: as §1

C. freundii GN346/16 = experiment: agar plate dilution method, MIC against C. freundii GN346/16; type: cell-based; conditions: Citrobacter freundii, read-out: Minimum Inhibitory Concentration (MIC)
Description: as §1

S. epidermidis IAM12012 = experiment: agar plate dilution method, MIC against S. epidermidis IAM12012; type: cell-based; conditions: Staphylococcus epidermidis, IAM12012, 16 h, read-out: Minimum Inhibitory Concentration (MIC)
Description: as §1

Ps. maltophilia GN 12873 = experiment: agar plate dilution method, MIC against Ps. maltophilia GN 12873; type: cell-based, Pseudomonas maltophilia; conditions: Stenotrophomonas maltophilia, read-out: Minimum Inhibitory Concentration (MIC)
Description: as §1

Ps. aeruginosa AK 109 = experiment: agar plate dilution method, MIC against Ps. aeruginosa AK 109; type: cell-based; conditions: Pseudomonas aeruginosa, AK109, 16 h, read-out: Minimum Inhibitory Concentration (MIC)
Description: as §1

E. coli CSH2 (RK1) = experiment: agar plate dilution method, MIC against E. coli CSH2 (RK1); type: cell-based; conditions: Escherichia coli, 16 h, read-out: Minimum Inhibitory Concentration (MIC)
Description: as §1

K. oxytoca GN10650 = experiment: agar plate dilution method, MIC against K. oxytoca GN10650; type: cell-based; conditions: Klebsiella oxytoca, read-out: Minimum Inhibitory Concentration (MIC)
Description: as §1

For CO/N=C(\C(=O)N[C@@H]1C(=O)N2C(C(=O)O)=C(COC(C)=O)CS[C@H]12)c1csc(N)n1 [Cefotaxime, cefotaxime, reference compound], the MIC (S. marcescens IAM 1184; IAM1184, S. marcescens IAM 1184, 10^6 CFU/ml, 37° C., 16 hours) was 0.1 µg/mL (≈ 0.22 µM), the MIC (E. coli CSH(RE45)) was 0.1 µg/mL (≈ 0.22 µM) and the MIC (K. pneumoniae PCI-602) was < 0.006 µg/mL. It also gave an MIC (A. calcoaceticus No. 4; A. calcoaceticus No. 4, 10^6 CFU/ml, 37° C., 16 hours) of 25 µg/mL (≈ 54.9 µM), an MIC (S. aureus JS1; S. aureus JS1 (methicilline resistant; lactamase-producing strain), 10^6 CFU/ml, 37° C., 16 hours) of 25 µg/mL (≈ 54.9 µM) and an MIC (S. aureus 209P NIHJ-JC1) of 1.56 µg/mL (≈ 3.43 µM). For the same compound, the MIC (Ps. aeruginosa IFO3445; IFO3445, 16 h) was 12.5 µg/mL (≈ 27.4 µM), the MIC (S. marcescens No. 16-2) was 12.5 µg/mL (≈ 27.4 µM) and the MIC (E. cloacae 963; Enterobacter cloacae, E. cloacae 963, 10^6 CFU/ml, 37° C., 16 hours) was 0.1 µg/mL (≈ 0.22 µM). The MIC (M. luteus ATCC9341; M. luteus ATCC9341, 10^6 CFU/ml, 37° C., 16 hours) was 0.1 µg/mL (≈ 0.22 µM), the MIC (E. coli NIHJ JC2; NIHJJC2, E. coli NIHJ JC2, 10^6 CFU/ml, 37° C., 16 hours) was 0.05 µg/mL (≈ 0.11 µM) and the MIC (C. freundii GN346; C. freundii GN346 (lactamase-producing strain), 10^6 CFU/ml, 37° C., 16 hours) was 12.5 µg/mL (≈ 27.4 µM). For the same compound, the MIC (K. pneumoniae No. 42; K. pneumoniae No. 42 (lactamase-producing strain), 10^6 CFU/ml, 37° C., 16 hours) was 0.05 µg/mL (≈ 0.11 µM), the MIC (P. vulgaris HX-19) was < 0.006 µg/mL and the MIC (E. coli GN5482; E. coli GN5482 (lactamase-producing strain), 10^6 CFU/ml, 37° C., 16 hours) was 0.39 µg/mL (≈ 0.856 µM). For the same compound, the MIC (Ps. cepacia 23; Burkholderia cepacia, 23, 16 h) was 6.25 µg/mL (≈ 13.7 µM), the MIC (Ps. aeruginosa AKR17) was > 100 µg/mL and the MIC (S. aureus BB5703) was 3.12 µg/mL (≈ 6.85 µM). It also gave an MIC (E. cloacae Nek 39; NEK39, E. cloacae Nek 39 (lactamase-producing strain), 10^6 CFU/ml, 37° C., 16 hours) of 3.12 µg/mL (≈ 6.85 µM), an MIC (P. vulgaris No. 33; P. vulgaris No. 33 (lactamase-producing strain), 10^6 CFU/ml, 37° C., 16 hours) of 0.025 µg/mL (≈ 0.0549 µM) and an MIC (M. morganii GN5407; M. morganii GN5407 (lactamase-producing strain), 10^6 CFU/ml, 37° C., 16 hours) of 0.1 µg/mL (≈ 0.22 µM). For the same compound, the MIC (C. freundii GN346/16; C. freundii GN346/16, 10^6 CFU/ml, 37° C., 16 hours) was 0.1 µg/mL (≈ 0.22 µM), the MIC (S. epidermidis IAM12012) was 1.56 µg/mL (≈ 3.43 µM) and the MIC (Ps. maltophilia GN 12873; GN12873, Ps. maltophilia GN 12873 (lactamase-producing strain), 10^6 CFU/ml, 37° C., 16 hours) was > 100 µg/mL. For the same compound, the MIC (Ps. aeruginosa AK 109) was 12.5 µg/mL (≈ 27.4 µM), the MIC (E. coli CSH2 (RK1)) was 0.025 µg/mL (≈ 0.0549 µM) and the MIC (K. oxytoca GN10650; K. oxytoca GN10650 (lactamase-producing strain), 10^6 CFU/ml, 37° C., 16 hours) was 0.39 µg/mL (≈ 0.856 µM).

In the case of CC(C)(O/N=C(\C(=O)N[C@@H]1C(=O)N2C(C(=O)[O-])=C(C[n+]3ccccc3)CS[C@H]12)c1csc(N)n1)C(=O)O [Ceftazidime, ceftazidime, reference compound], the MIC (S. marcescens IAM 1184; IAM1184, 16 h) is reported as 0.025 µg/mL (≈ 0.0457 µM), the MIC (E. coli CSH(RE45)) is reported as 0.1 µg/mL (≈ 0.183 µM) and the MIC (K. pneumoniae PCI-602) is reported as < 0.006 µg/mL. For the same compound, the MIC (A. calcoaceticus No. 4; NO.4, 16 h) was 6.25 µg/mL (≈ 11.4 µM), the MIC (S. aureus JS1; JS1, 16 h) was 25 µg/mL (≈ 45.7 µM) and the MIC (S. aureus 209P NIHJ-JC1) was 6.25 µg/mL (≈ 11.4 µM). For the same compound, the MIC (Ps. aeruginosa IFO3445; Ps. aeruginosa IFO3445, 10^6 CFU/ml, 37° C., 16 hours) was 0.39 µg/mL (≈ 0.714 µM), the MIC (S. marcescens No. 16-2) was 1.56 µg/mL (≈ 2.85 µM) and the MIC (E. cloacae 963; Enterobacter cloacae, 963, 16 h) was 0.2 µg/mL (≈ 0.366 µM). The MIC (M. luteus ATCC9341; ATCC9341, 16 h) was 0.78 µg/mL (≈ 1.43 µM), the MIC (E. coli NIHJ JC2; NIHJJC2, 16 h) was 0.2 µg/mL (≈ 0.366 µM) and the MIC (C. freundii GN346; GN346, 16 h) was 25 µg/mL (≈ 45.7 µM). It also gave an MIC (K. pneumoniae No. 42; NO.42, 16 h) of 0.39 µg/mL (≈ 0.714 µM), an MIC (P. vulgaris HX-19) of 0.025 µg/mL (≈ 0.0457 µM) and an MIC (E. coli GN5482; GN5482, 16 h) of 1.56 µg/mL (≈ 2.85 µM). For the same compound, the MIC (Ps. cepacia 23; Burkholderia cepacia, Ps. cepacia 23, 10^6 CFU/ml, 37° C., 16 hours) was 0.78 µg/mL (≈ 1.43 µM), the MIC (Ps. aeruginosa AKR17) was > 100 µg/mL and the MIC (S. aureus BB5703) was 12.5 µg/mL (≈ 22.9 µM). The MIC (E. cloacae Nek 39; NEK39, 16 h) was 3.12 µg/mL (≈ 5.71 µM), the MIC (P. vulgaris No. 33; NO.33, 16 h) was 0.05 µg/mL (≈ 0.0915 µM) and the MIC (M. morganii GN5407; GN5407, 16 h) was 0.1 µg/mL (≈ 0.183 µM). The MIC (C. freundii GN346/16; GN346, 16 h) was 0.2 µg/mL (≈ 0.366 µM), the MIC (S. epidermidis IAM12012) was 3.12 µg/mL (≈ 5.71 µM) and the MIC (Ps. maltophilia GN 12873; GN12873, 16 h) was 100 µg/mL (≈ 183 µM). It also gave an MIC (Ps. aeruginosa AK 109) of 1.56 µg/mL (≈ 2.85 µM), an MIC (E. coli CSH2 (RK1)) of 0.1 µg/mL (≈ 0.183 µM) and an MIC (K. oxytoca GN10650; GN10650, 16 h) of 0.2 µg/mL (≈ 0.366 µM).

Reference: patent publication US4988687A, “Cephalosporin derivatives, and antibacterial agents” (priority 1986, dated 1991)
